According to paper PMC5391968, “Comparison of cell-based assays for the identification and evaluation of competitive CXCR4 inhibitors” (PLoS ONE, 2017):
Like-named read-outs stand apart in the source and are kept apart here.

How the values were obtained:
[1] = biological target: T1, CXCR4 (Homo sapiens, UniProt P61073); assay: Calcium mobilization assay (FLIPR Tetra) in U87.CD4.CXCR4 cells; format: cell-based; conditions: U87.CD4.CXCR4 cells, 6.25 nM CXCL12, mean ± SEM; read-out: IC50 Calcium signaling (CXCL12-induced)
T1 sequence (P61073 whole entry): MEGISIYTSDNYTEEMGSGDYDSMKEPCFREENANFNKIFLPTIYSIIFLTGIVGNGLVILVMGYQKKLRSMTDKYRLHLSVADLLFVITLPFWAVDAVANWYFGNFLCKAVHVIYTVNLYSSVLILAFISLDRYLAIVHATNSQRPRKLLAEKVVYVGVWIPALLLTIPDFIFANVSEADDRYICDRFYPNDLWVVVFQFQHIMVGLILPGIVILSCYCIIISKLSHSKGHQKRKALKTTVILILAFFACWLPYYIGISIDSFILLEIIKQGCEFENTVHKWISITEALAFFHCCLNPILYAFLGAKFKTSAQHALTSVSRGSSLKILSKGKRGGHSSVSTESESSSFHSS
Protocol: U87.CD4.CXCR4 cells were seeded at 2x10^4 cells per well in gelatin-coated black-walled 96-well plates [0.1% gelatin in DPBS, incubated at RT for two hours and washed once with DPBS] and incubated at 37°C and 5% CO2 overnight. […] Fluo-2 AM loaded cells were washed with assay buffer before being incubated in the FLIPR Tetra system at 37°C for five minutes. At the start of the kinetic measurement, compounds were added to the cell plate by the internal robotic system followed by an incubation period of 10 minutes during which changes in the intracellular calcium level were continuously measured by the FLIPR Tetra. […] Each condition was measured in triplicate and repeated several times as further indicated (see Results).

[2] = tested on: HIV-1 NL4-3 (X4); assay: microbe, parasite or virus in culture; format: cell-based; conditions: MT-4 cells, four days post infection, MTS, mean ± SEM; read-out: IC50 HIV-1 (X4) NL4-3 replication, MT-4 cells
Protocol: The anti-HIV replication assays in MT-4 cells and PHA-stimulated PBMCs have been described previously. The HIV-1 T-tropic molecular clone NL4-3 (X4) was obtained from the National Institute of Allergy and Infectious Disease (NIAID) AIDS reagent program (Bethesda, MD, USA). Briefly, 5x10^4 MT-4 cells (in cell culture medium) were treated with different concentrations of compound at 37°C for 30 minutes. Afterwards, a 50% tissue culture infectious dose of the NL4-3 viral stock was added to the cell-compound mixtures. Four days post infection, the cytopathic effect was evaluated microscopically and cell viability was assessed with the MTS method, as described above.
In the antiviral assays, each condition was tested in duplicate.

[3] = biological target: T1, CXCR4; assay: Labeled CXCR4 monoclonal antibody binding (clones 12G5, 1D9), flow cytometry; set-up: CXCR4 receptors endogenously expressed on SUP-T1 cells; endogenous in cells; host or cells: SUP-T1 (ATCC); conditions: 12G5 clone and 1D9 clone, data not shown
Protocol: A feature of CXCR4, shared with many other GPCRs, is its internalization following agonist binding, also known as receptor endocytosis. To evaluate the potential inhibitory effect of the compounds on CXCR4 endocytosis, CXCR4 receptors endogenously expressed on SUP-T1 cells were first stained with a PE-labeled rat anti-human CXCR4 mAb targeting the receptor’s N-terminus (clone 1D9) and subsequently incubated with compound. […] In addition, when SUP-T1 cells were incubated with compound for thirty minutes at 4°C, and afterwards stained with the CXCR4 mAb (1D9) for thirty minutes at 4°C, no displacement (i.e. decrease in mAb binding) of the CXCR4 mAb was observed by flow cytometry (data not shown). […] In consequence, reduced cellular staining in our assay reflects the inhibitory effects of compounds on receptor internalization and not simply displacement of the CXCR4 mAb.

[4] = biological target: T1, CXCR4; assay: CXCL12/CXCR4 interaction on SUP-T1 cells; format: binding; set-up: CXCR4 receptors endogenously expressed on SUP-T1 cells; endogenous in cells; host or cells: SUP-T1 (ATCC); conditions: high concentration, data not shown
[5] = biological target: T1, CXCR4; assay: CXCR4 internalization assay in SUP-T1 cells; format: cell-based; set-up: CXCR4 receptors endogenously expressed on SUP-T1 cells; endogenous in cells; host or cells: SUP-T1 (ATCC)
Protocol: T-lymphoblastic SUP-T1 cells were washed twice in DPBS containing 2% FBS. Afterwards, cells were first incubated with the PE-labeled rat anti-human CXCR4 mAb (clone 1D9; 2 μg/ml in DPBS/2% FBS; BD Pharmingen) on ice for 45 minutes. […] SUP-T1 cells were subsequently washed once with ice cold DPBS and twice with ice cold assay buffer (see above) before being treated with test compound on ice for 15 minutes. […] Samples were immediately analyzed with the FACSCalibur flow cytometer (Becton Dickinson) whereby the measured fluorescence corresponds to the amount of […] CXCR4 receptors. Data were further analyzed with the FlowJo software.

[6] = tested on: HIV-1 NL4-3 (X4); assay: microbe, parasite or virus in culture; format: cell-based; conditions: PHA-stimulated PBMCs, ten days post infection, p24 Ag ELISA, mean ± SEM; read-out: IC50 HIV-1 (X4) NL4-3 replication, PHA-stimulated PBMCs
Protocol: PHA-stimulated PBMCs at 5x10^5 cells per sample, pre-incubated with test compounds dissolved in cell culture medium containing IL-2 (2 ng/ml; […] After three days, fresh culture medium with IL-2 was added. Ten days post infection cell supernatant was collected for HIV-1 p24 core antigen enzyme-linked immunosorbent assay (ELISA; Perkin Elmer, Boston, MA, USA) according to the manufacturer’s protocol. In the antiviral assays, each condition was tested in duplicate.

[7] = tested on: CXCR4-positive Jurkat cells; assay: cells; format: cell-based, human; conditions: Jurkat cells, 6.25 nM CXCL12, two hours, mean ± SEM; read-out: IC50 Chemotaxis
Protocol: Jurkat cells were washed twice in assay buffer (see above), dispensed into a 96-well plate (5x10^5 cells per well) containing serial dilutions of compounds (in assay buffer) and incubated at RT in the dark for 10 minutes. […] Suspensions of 1.87x10^4 cells were transferred to the chemotaxis insert plate. […] After removal of the insert plate, migrated cells were centrifuged and resuspended in DPBS containing flow cytometry cell counting beads ([…] Fluorescent Particles; Gentaur, London, UK). Both migrated cells and particles were counted by flow cytometry (FACSCanto II; Becton Dickinson). Each compound concentration was tested in triplicate. Data were analyzed using the FlowJo software and the total number of migrated cells was calculated, according to the counted and total number of beads present in the sample.

[8] = biological target: T1, CXCR4; assay: CXCL12^AF647 binding assay on Jurkat cells; conditions: Jurkat cells, 2.9 nM CXCL12^AF647, mean ± SEM; read-out: IC50 CXCL12-CXCR4 binding interaction
Protocol: In brief, Jurkat cells were washed twice in assay buffer [Hank’s Balanced Salt Solution (HBSS; Thermo Fisher Scientific), 20 mM HEPES buffer (Thermo Fisher Scientific), 0.2% bovine serum albumin (Sigma-Aldrich), pH 7.4]. […] Afterwards, cells were washed twice in assay buffer and subsequently fixed in 1% paraformaldehyde in Dulbecco’s phosphate buffered saline (DPBS). Samples were analyzed with the FACSArray flow cytometer (Becton Dickinson, NJ, USA). Data were further analyzed with the FlowJo Software (Ashland, Oregon, USA).

With c1ccc(NCc2ccc(CNc3ccccn3)cc2)nc1 [WZ811] the IC50 [1] was greater than 100 µM, the IC50 [2] was greater than 100 µM and the “reduction of labeled CXCR4 mAb binding” value [3] was “unable to reduce mAb binding”. The “inhibition of the interaction between CXCL12 and CXCR4” value [4] was “unable, even at high concentration, to inhibit the interaction between CXCL12 and CXCR4”, the “induction of CXCR4 internalization (agonistic effect)” value ([5]; 100 μM, in absence of CXCL12, data not shown) was “absence of an agonistic effect” and the IC50 ([5]; SUP-T1 cells, 6.25 nM CXCL12, 37°C 30 minutes, mean ± SEM) was greater than 100 µM. For the same compound, the IC50 [6] was 38.2 µM, the IC50 [7] was greater than 100 µM and the IC50 [8] was greater than 100 µM.
